Non-standard residues stand in square brackets, D forms with d. Residues, ends and D or L forms follow the SMILES beside them. ξ: configuration not given here. *: point of attachment. Phenylacetyl(2,3,4,5,6-F5) = O=C(Cc1c(F)c(F)c(F)c(F)c1F)*; Phenylacetyl(4-F) = O=C(Cc1ccc(F)cc1)*; Hydrocinnamoyl = O=C(CCc1ccccc1)*; Ile(3ξ) = CCC(C)[C@H](N)C(=O)O; PhAc = O=C(Cc1ccccc1)*; Bz = O=C(c1ccccc1)*
Tests used:
[1] = Phase inversion temperature (Tgel-sol) test of hydrogels; type: physicochemical; details: heated 2° C./min until hydrogel began to flow
Procedure: Hydrogels (A) to (R) were obliquely placed in water bath while a beaker including water and a thermometer was also placed in the water bath. The hydrogels were heated (2° C./min) until such hydrogels began to flow (the gel phase was changed to the sol phase). The inversion temperatures when the hydrogels began to flow were recorded, and such temperatures were the phase inversion temperatures of hydrogels.

[2] = Rheological test of hydrogels (angular frequency sweep); type: physicochemical; details: angular frequency sweep 0.1 to 100 rad/s, strain=0.8%, 25° C.
Procedure: In the present invention, Rheological test was performed by Anton Paar rheometer. MTT cell viability assay was performed by Sunrise absorbance microplate reader (DV990/BV4 GDV Programmable MPT reader).
Rheological tests of hydrogels were performed by Anton Paar rheometer. 25 mm parallel plate was used in the experimentation. 400 μL of hydrogels (A) to (R) were placed on the parallel plate. Angular frequency sweep test: measurement range (frequency 0.1 to 100 rad/s, strain=0.8%) is 13 points per 10 rounds. Sweep model is “logarithm (log)” and the operation temperature is 25° C.
In FIG. 3, G′ represents storage modulus, and G″ represents loss modulus. The higher G′ and G″ are, the better stability the hydrogel is.

[3] = State of hydrogels at 37° C. and 4° C. (TEM images); type: physicochemical
Procedure: The material, technique and general process in the present invention are suitable for the following examples. All used chemical reagents and solutions can be obtained from suppliers. ^1H and ^13C spectrums were measured by Bruker DRX-300. LC-MS was measured by MICROMASS Q-Tof. TEM was measured by Hitachi HT7700 Bio-transmission electron microscope.

[4] = MTT cell viability assay, CTX TNA2 cell; type: cell-based; details: rat, CTX TNA2 cells, hydrogel up to 500 μM
Procedure: (§1) The bio-compatibility of the hydrogels prepared from the different peptide materials was measured by MTT cell viability assay.
(§2) MTT cell viability assay was performed by Sunrise absorbance microplate reader (DV990/BV4 GDV Programmable MPT reader). Various cells were seeded in a 24-well plate containing 0.5 mL medium (DMEM) with 10% fetal bovine serum (FBS) and 1% penicillin. In each well, the cell concentration was 50000 cells and cells were cultured for 24 hours. After seeding the cells, hydrogels with the different concentrations ([…]) were added. The medium in each well was replaced with the flesh medium containing 0.5 mL of MTT reagent (4 mg mL^−1) after 24 and 48 hours. After an additional 4 hours, the medium containing MTT reagent was removed and DMSO (0.5 mL/well) was added to dissolve formazan crystals. The cells in the 24-well plate were transferred to a 96-well plate. The optical densities of such obtained solutions were measured at 595 nm by Sunrise absorbance microplate reader (DV990/BV4 GDV Programmable MPT reader).
(§3) The untreated cells were used as a comparative example. The cell viability was calculated based on the following equation:
(§4) Cell viability(%)=ODsample/ODcomparative example

CTX TNA2 cell [5] = experiment: MTT cell viability assay, CTX TNA2 cell; type: cell-based; details: read-out: IC50 inhibition concentration
Procedure: as §1, §2, §3, §4

Hela cell [6] = experiment: Wound healing assay, Hela cell; type: cell-based; details: medium with 1 wt % of hydrogel
Procedure: Various cells were washed with PBS (phosphate buffer) twice and were suspended in a T-75 tissue culture flask. 0.25% trypsin containing 0.1% EDTA was added and then the cells were re-suspended in 5 mL of complete medium. 30000 cells (in 3 mL of medium) were placed in each vial on a 6-well plate to form a fusion monolayer. […] 2 mL of PBS was used twice to remove the floating cells, and was then replaced with 3 mL of complete medium. The image taken at 0 hour was used as a reference point. […] The images at different hours were taken at an appropriate region. Control: no compound added.

[7] = MTT cell viability assay, MCF-7 cell; type: cell-based; details: human, MCF-7 cells, hydrogel up to 500 μM
Procedure: as §1, §2, §3, §4

MCF-7 cell = experiment: MTT cell viability assay, MCF-7 cell; type: cell-based; details: Homo sapiens, MCF7, read-out: IC50 inhibition concentration
Procedure: as §1, §2, §3, §4

Hela cell [8] = experiment: MTT cell viability assay, Hela cell; type: cell-based; details: Homo sapiens, read-out: IC50 inhibition concentration
Procedure: as §1, §2, §3, §4

[9] = MTT cell viability assay, Hela cell; type: cell-based; details: human, HeLa cells, hydrogel up to 500 μM
Procedure: as §1, §2, §3, §4

CTX TNA2 cell [10] = experiment: Wound healing assay, CTX TNA2 cell; type: cell-based; details: medium with 1 wt % of hydrogel, versus Control
Procedure: Various cells were washed with PBS (phosphate buffer) twice and were suspended in a T-75 tissue culture flask. 0.25% trypsin containing 0.1% EDTA was added and then the cells were re-suspended in 5 mL of complete medium. 30000 cells (in 3 mL of medium) were placed in each vial on a 6-well plate to form a fusion monolayer. After the adhesion for 24 hours, the cell monolayer was scratched by a p200 pipet tip to create a wound. 2 mL of PBS was used twice to remove the floating cells, and was then replaced with 3 mL of complete medium. The image taken at 0 hour was used as a reference point. The medium was replaced with 3 mL of medium containing 1 wt % of hydrogel and the plate was incubated at 37° C. and 5% CO2 for 24 hours. The images at different hours were taken at an appropriate region. Control: no compound added.

SMILES | phase inversion temperature Tgel-sol [1] | storage modulus (G′) [2] | other results
O=C(Cc1c(F)c(F)c(F)c(F)c1F)N[C@@H](Cc1ccccc1)C(=O)N[C@@H](Cc1ccccc1)C(=O)O [hydrogel (D), PFB-Phe-Phe] | 45 °C | 2×10^4 Pa | 
CCC(C)[C@H](NC(=O)Cc1c(F)c(F)c(F)c(F)c1F)C(=O)N[C@@H](Cc1ccccc1)C(=O)O (stereo partly shown) [hydrogel (H), PFB-Ile-Phe] | 71 °C | 1×10^4 Pa | 
O=C(Cc1c(F)c(F)c(F)c(F)c1F)NCC(=O)N[C@@H](Cc1ccccc1)C(=O)N[C@@H](Cc1ccccc1)C(=O)O [hydrogel (L), PFB-Gly-Phe-Phe] | 38 °C | 4×10^2 Pa | state of hydrogel at 4° C. [3]: liquid; state of hydrogel at 37° C. [3]: colloidal state
CCC(C)[C@H](NC(=O)c1ccccc1)C(=O)N[C@@H](CCCCN)C(=O)N[C@H](C(=O)N[C@@H](C)C(=O)N[C@H](C(=O)O)C(C)C)C(C)C (stereo partly drawn) [hydrogel (O), Benzoic Acid-Ile-Lys-Val-Ala-Val] (Bz-[Ile(3ξ)]KVAV-OH) | 62 °C | 6×10^3 Pa | 
O=C(Cc1c(F)c(F)c(F)c(F)c1F)N[C@@H](Cc1ccc(O)cc1)C(=O)N[C@@H](Cc1ccccc1)C(=O)O [hydrogel (C), PFB-Tyr-Phe] | 43 °C | 5×10^3 Pa | viability [4]: ~100%; IC50 (CTX TNA2 cell [5]): > 500 µM; wound healing after 48 hours (Hela cell [6]): healed completely; viability [7]: ~100%; IC50 (MCF-7 cell): > 500 µM; IC50 (Hela cell [8]): > 500 µM; viability [9]: ~100%; healing effect (CTX TNA2 cell [10]): better than that of Control
CC(C)[C@H](NC(=O)Cc1c(F)c(F)c(F)c(F)c1F)C(=O)N[C@@H](Cc1ccccc1)C(=O)O [hydrogel (G), PFB-Val-Phe] | 72 °C | 6×10^4 Pa | 
CC(C)C[C@H](NC(=O)Cc1c(F)c(F)c(F)c(F)c1F)C(=O)N[C@@H](Cc1ccccc1)C(=O)O [hydrogel (I), PFB-Leu-Phe] | 55 °C | 2×10^3 Pa | state of hydrogel at 4° C. [3]: liquid; state of hydrogel at 37° C. [3]: colloidal state
O=C(O)CNC(=O)[C@H](Cc1ccccc1)NC(=O)Cc1c(F)c(F)c(F)c(F)c1F [hydrogel (B), PFB-Phe-Gly] | 48 °C | 10^4 Pa | wound healing after 48 hours (Hela cell [6]): healed completely
CC(C)[C@H](NC(=O)[C@H](Cc1ccccc1)NC(=O)Cc1c(F)c(F)c(F)c(F)c1F)C(=O)O [hydrogel (F), PFB-Phe-Val] | 46 °C | 3×10^3 Pa | wound healing after 48 hours (Hela cell [6]): healed completely
C[C@H](NC(=O)[C@H](Cc1ccccc1)NC(=O)Cc1c(F)c(F)c(F)c(F)c1F)C(=O)O [hydrogel (E), PFB-Phe-Ala] | 48 °C | 4×10^3 Pa | wound healing after 48 hours (Hela cell [6]): healed completely
O=C(Cc1ccc(F)cc1)N[C@@H](Cc1ccccc1)C(=O)N[C@@H](Cc1ccccc1)C(=O)O [hydrogel (K), 4-Fluorobenzyl-Phe-Phe] | 46 °C | 6×10^3 Pa | 
CCC(C)[C@H](NC(=O)CCc1ccccc1)C(=O)N[C@@H](CCCCN)C(=O)N[C@H](C(=O)N[C@@H](C)C(=O)N[C@H](C(=O)O)C(C)C)C(C)C (stereo partly drawn) [hydrogel (Q), 3-Phenylpropionic Acid-Ile-Lys-Val-Ala-Val] (Hydrocinnamoyl-[Ile(3ξ)]KVAV-OH) | > 90 °C | 1×10^4 Pa | 
CCC(C)[C@H](NC(=O)[C@H](Cc1ccccc1)NC(=O)Cc1c(F)c(F)c(F)c(F)c1F)C(=O)N[C@@H](CCCCN)C(=O)N[C@H](C(=O)N[C@@H](C)C(=O)N[C@H](C(=O)O)C(C)C)C(C)C (stereo partly drawn) [hydrogel (R), PFB-Phe-Ile-Lys-Val-Ala-Val] ({Phenylacetyl(2,3,4,5,6-F5)}-F[Ile(3ξ)]KVAV-OH) | 40 °C | 1.0×10^3 Pa | 
CCC(C)[C@H](NC(=O)Cc1ccc(F)cc1)C(=O)N[C@@H](CCCCN)C(=O)N[C@H](C(=O)N[C@@H](C)C(=O)N[C@H](C(=O)O)C(C)C)C(C)C (stereo partly drawn) [hydrogel (N), 4-Fluorophenylacetic Acid-Ile-Lys-Val-Ala-Val] ({Phenylacetyl(4-F)}-[Ile(3ξ)]KVAV-OH) | 66 °C | 1×10^4 Pa | 
O=C(Cc1c(F)c(F)c(F)c(F)c1F)N[C@@H](Cc1ccccc1)C(=O)O [hydrogel (A), PFB-Phe] | 56 °C | 2×10^3 Pa | wound healing after 48 hours (Hela cell [6]): healed completely
CC(C)C[C@@H](NC(=O)Cc1c(F)c(F)c(F)c(F)c1F)C(=O)N[C@H](Cc1ccccc1)C(=O)O [hydrogel (J), PFB-D-L-D-F] | 69 °C | 7×10^2 Pa | 
CCC(C)[C@H](NC(=O)Cc1ccccc1)C(=O)N[C@@H](CCCCN)C(=O)N[C@H](C(=O)N[C@@H](C)C(=O)N[C@H](C(=O)O)C(C)C)C(C)C (stereo partly drawn) [hydrogel (P), Phenylacetic Acid-Ile-Lys-Val-Ala-Val] (PhAc-[Ile(3ξ)]KVAV-OH) | 65 °C | 6×10^3 Pa | 
CCC(C)[C@H](NC(=O)Cc1c(F)c(F)c(F)c(F)c1F)C(=O)N[C@@H](CCCCN)C(=O)N[C@H](C(=O)N[C@@H](C)C(=O)N[C@H](C(=O)O)C(C)C)C(C)C (stereo partly drawn) [hydrogel (M), PFB-Ile-Lys-Val-Ala-Val] ({Phenylacetyl(2,3,4,5,6-F5)}-[Ile(3ξ)]KVAV-OH) | 42 °C | 1×10^3 Pa | 
